This is an account of results in patent US8808715B1, “Methods and compositions for modulating keratinocyte function” (Georgia Regents Research Institute, Inc, priority 2004, dated 2014).

Common to all, as to format: cell-based, mouse
One assay concerns primary keratinocytes. Briefly: [3H]Glycerol uptake. Conditions: 24 hours. On the procedure: Confluent primary keratinocytes were incubated for 30, 60, 90, 120, 300 or 600 seconds with SFKM containing 20 mM HEPES (for additional pH buffering), 1 μCi/mL [^3H]glycerol and 0.1% DMSO (control) or 100 nM PMA. Reactions were terminated by washing three times with ice-cold phosphate-buffered saline lacking divalent cations. The cells were subsequently solubilized in 0.3 M NaOH and aliquots of this extract subjected to liquid scintillation counting. Counts obtained from duplicate samples at each time point were averaged and graphed, and a linear equation was determined for each condition. Correlation coefficients obtained were typically 0.99 or greater (mean correlation coefficient for control was 0.992±0.002 and for PMA, 0.994±0.001). Slopes obtained from multiple experiments were averaged and analyzed statistically for significant differences between conditions.
The linearity of glycerol uptake determined above allowed measurement of uptake at a single time point to determine the effects of other treatments on this process. Thus, confluent keratinocytes were preincubated for 30 minutes with 0.1% DMSO (control) or 100 nM PMA prior to measuring [^3H]glycerol uptake as above but at 5 minutes only. Similarly, near-confluent primary keratinocytes were incubated for 24 hours with SFKM containing various calcium concentrations prior to measurement of radiolabeled glycerol uptake for 5 minutes.
Near-confluent keratinocyte cultures were incubated for 24 hours in SFKM (25 μM calcium) or SFKM containing 125 μM calcium (125 μM Ca^2+-SFKM) and the glycerol uptake assay performed as previously described in Zheng & Bollag (2003). Briefly, cells were incubated with SFKM containing 20 mM HEPES (for additional pH buffering) and 1 μCi/mL [^3H] glycerol for 5 minutes, since it has previously been shown that this time point is in the linear range of [^3H]glycerol uptake (Zheng & Bollag (2003). Reactions were terminated by rapidly washing three times with ice-cold phosphate-buffered saline lacking divalent cations (PBS-). Cells were then solubilized in 0.3 M NaOH and [^3H]glycerol uptake quantified by liquid scintillation spectroscopy.

Another assay concerns keratin 5 promoter. Briefly: Co-transfection analysis, keratin 5 promoter-luciferase reporter. Conditions: 1 mM calcium, 24 hours. On the procedure:
FIGS. 15A-B illustrate that glycerol, but not xylitol or sorbitol, inhibits DNA synthesis and enhances the inhibitory effect of an elevated extracellular Ca^2+ concentration. (A) Near-confluent keratinocytes were incubated for 24 hours with 0.02 or 0.1% glycerol and DNA synthesis measured as the incorporation of [^3H] thymidine incorporation into DNA. (B) Near-confluent keratinocytes were incubated for 24 hours with the indicated concentrations of glycerol (G, squares) or equivalent concentrations of xylitol (X, circles) in SFKM containing 25 μM (control; open symbols) or 125 μM Ca^2+ (Ca^2+; closed symbols). (C) Near-confluent keratinocytes were incubated for 24 hours with the indicated concentrations of glycerol (G) or equivalent concentrations of sorbitol (S, triangles) in SFKM containing 25 μM (control; open symbols) or 125 μM Ca^2+ (Ca^2+; closed symbols) for 24 hours. [^3H]Thymidine incorporation into DNA was then determined. Values represent the means±SEM of 4 to 5 separate experiments performed in duplicate; *p<0.05, **p<0.01 versus the control value, †p<0.05 versus the value in the presence of Ca^2+ alone. […] After 24 hours cells were refed with medium containing no addition (control) or 0.2% glycerol for an additional 24 hours. Luciferase activity was then measured using a Dual Luciferase kit as directed by the manufacturer. […] The blots were quantified using the Kodak molecular imaging software. […]
The keratin 5 and keratin 10 promoter-luciferase constructs were provided by of Dr. Bogi Andersen (University of California, Irvine, Calif.); the involucrin promoter-luciferase construct was provided by Dr. Daniel Bikle (University of California, San Francisco, Calif.). […] Luciferase activity was then measured using the Dual Luciferase Reporter Assay kit (Promega, Madison, Wis.) as directed by the manufacturer.

The test system of the next assay is keratinocytes. Put plainly: Release of radiolabel from [14C]glycerol-labeled lipids by bacterial PLD (headgroup position). Conditions: 125 μM calcium pretreatment 24 hours, means±SEM. On the procedure: Keratinocytes pretreated for 24 hours with control (25 μM calcium) or 125 μM calcium-containing medium were exposed to 0.4-0.5 μCi/mL [^14C]glycerol for an additional 30 minutes. Lipids were extracted into chloroform/methanol as described above. Dried lipid extracts were then solubilized in phospho lipase buffer (100 mM Tris, pH 7.4, 6 mM MgCl2+0.1% Triton-X100) by extensive vortexing and a short incubation at 37° C. and approximately half of each extract was transferred into a clean tube. Distilled water (untreated) or 1 IU/mL (final concentration) of Streptomyces chromofuscus PLD (Sigma, St. Louis, Mo.) diluted in distilled water (PLD-treated) was then added to each of the lipid extract samples, which were incubated at 37° C. for 60 minutes. Released headgroups were then separated from phospholipids by extraction into the aqueous layer, essentially according to the method of Folch. […] A portion of the upper aqueous layer was then collected and quantified by liquid scintillation spectrometry. PLD-released radioactivity in the aqueous phase was calculated as the amount released in the PLD-treated sample minus the amount detected in the corresponding untreated sample. […] This lipid extract was then separated by thin-layer chromatography and PG and phosphatidic acid in the samples quantified as above.

Molecules are shown by their SMILES.

Turning to `[Ca+2]` [calcium], the “glycerol uptake relative to control” value with primary keratinocytes (500 μM calcium pretreatment) is recorded as “approximately equivalent to the control value”; in the assay with primary keratinocytes (1 mM calcium pretreatment) it was “slight but not significant inhibition”. Further, the “increase in glycerol uptake relative to the 25 μM calcium control” value worked out at 56% in the assay on primary keratinocytes (pre-exposure to 125 μM calcium) and 41% in the assay on primary keratinocytes (pre-exposure to 250 μM calcium). In addition, the “inhibition of keratin 5 promoter activity” value with keratin 5 promoter turned out to be 64%. In addition, the “radiolabel released into aqueous fraction by bacterial PLD from lipid extracts” value with keratinocytes (p<0.001) is listed as 4.2±0.4 fold over the control level. Besides, the “radioactivity released by bacterial PLD from isolated PG” value with keratinocytes (p<0.01) is on record as 3.3±0.5 fold over the control level.
